Like-named read-outs stand apart in the source and are kept apart here.
Columns and labels:
[1] = Evaluation for dissolvability of phytochemical (dissolution rate in water); conditions: for Dissolution rate: ultrapure water, shaken for 3 hours, centrifuged supernatant
Excerpt: In the present invention, the “dissolution rate” is an index indicating dissolvability of a compound into water, and is also represented by the value, in terms of the percentage (%), obtained by dividing a concentration (w/v) of the compound in a supernatant, which is obtained by shaking the compound in pure water to dissolve the compound therein and by centrifuging the solution, by a concentration (w/v) of the compound in pure water before being dissolved therein. The concentration may be measured by using a spectrophotometer. […] The temperature condition in the measurement of the “dissolution rate” is set to 21±2° C.
Furthermore, 10 mL of ultrapure water was added to the glucoside phytochemical such that the amount of aglycone (portion other than carbohydrate obtained by hydrolysis of glucoside) can be equal to 33.3 mg; namely, 67.3 mg of rutin (33.3 mg of quercetin); 89.6 mg of α-glucosyl rutin (33.3 mg of quercetin); 67.3 mg of hesperidin (33.3 mg of hesperetin); or 71.0 mg of naringin (33.3 mg of naringenin). As for the terpenoids, in accordance with the administering amount used in Experiments, 10 mL of ultrapure water was added to 3.3 mg of each of β-carotene and lycopene. The solutions thus prepared were shaken for 3 hours, and then, were centrifuged at 2000×g for 10 minutes. The centrifuged supernatants were filtrated by using a 0.45 μL filter. […] Each compound was dissolved in 80% methanol or methanol to obtain a calibration curve; and then, the concentration of the centrifuged supernatant was obtained. A series of the operations above were carried out under the temperature condition of 21±2° C. The dissolution rate was calculated in accordance with the following formula. Dissolution rate (%)=[(concentration of the centrifuged supernatant after dissolution by shaking (w/v))+(concentration of the solution before dissolution by shaking (w/v)]×100

[2] = in vivo; conditions: male, SD, rat, 5 mg/kg
[3] = Experiment 1: promoting absorption of β-carotene, yogurts of OLL1251 and other strains; format: in vivo; conditions: male, SD, oral; rat serum, 5 mg/kg-body weight β-carotene, 11.3 g/kg-body weight yogurt, up to 480 minutes; read-out: Area Under the blood concentration-time Curve (AUC) of β-carotene (converted)
Description: (§1) Column temperature was set at 40° C.
The yogurts thus obtained contained 136 μg/g, 88 μg/g, and 68 μg/g of the polysaccharide, respectively.

[4] = Experiment 3: promoting absorption of β-carotene, yogurts of strain combinations; format: in vivo; conditions: male, SD, oral; rat serum, 5 mg/kg-body weight β-carotene, 11.3 g/kg-body weight yogurt, up to 480 minutes; read-out: Area Under the blood concentration-time Curve (AUC) of β-carotene (converted)
Description: as §1
The yogurts thus obtained contained 15 μg/g, 54 μg/g, and 67 μg/g of the polysaccharide, respectively.

[5] = Experiment 5: promoting absorption of β-carotene, comparison with other absorption promotors; format: in vivo; conditions: male, SD, oral; rat serum, 5 mg/kg-body weight β-carotene, 70 mg/kg-body weight polysaccharide, up to 480 minutes; read-out: Area Under the blood concentration-time Curve (AUC) of β-carotene (converted)
Description: A part of the yogurt of Experiment 4 (Lactobacillus bulgaricus OLL1251 and Streptococcus thermophilus OLS3290) was taken; and then, to the supernatant thereof was added ethanol the amount of which was three times as much as the supernatant. The resulting mixture was kept in a frozen state, and thereafter, the supernatant of the mixture was centrifuged to obtain a precipitate. This precipitate was freeze-dried to obtain a polysaccharide concentrate. In 11.3 g of the yogurt, 70 mg of the polysaccharide concentrate was included. Hereinafter, the polysaccharide concentrate obtained is called “lactic acid bacterium-originated polysaccharide concentrate”.

[6] = concentration of the centrifuged supernatant after shaking in ultrapure water, 21±2° C., glucosides in terms of the aglycone

Row | Compound | Saturated solubility [1] | Dissolution rate ([1]; 21±2° C.) | also measured
1 | CC1=C(/C=C/C(C)=C/C=C/C(C)=C/C=C/C=C(C)/C=C/C=C(C)/C=C/C(=O)[C@]2(C)C[C@@H](O)CC2(C)C)C(C)(C)C[C@H](O)C1 [Capsanthin] | 0.1 or less mg/100 g | 0.1% or less | –
2 | Oc1cc(O)c2c(c1)O[C@H](c1ccc(O)c(O)c1)[C@H](O)C2 [Epicatechin] | 287 mg/100 g | – | –
3 | O=c1c(-c2ccc(O)cc2)coc2cc(O)cc(O)c12 [Genistein] | – | 0.2% | Saturated solubility [1, 6]: 0.6 mg/100 g
4 | COc1ccc([C@@H]2CC(=O)c3c(O)cc(O[C@@H]4O[C@H](CO[C@@H]5O[C@@H](C)[C@H](O)[C@@H](O)[C@H]5O)[C@@H](O)[C@H](O)[C@H]4O)cc3O2)cc1O [Hesperidin] | – | 0.2% | Saturated solubility [1, 6]: 0.5 mg/100 g
5 | O=c1c(O)c(-c2ccc(O)cc2)oc2cc(O)cc(O)c12 [Kaempferol] | 0.1 mg/100 g | 0.1% or less | –
6 | CC1=C[C@H](O)CC(C)(C)[C@H]1/C=C/C(C)=C/C=C/C(C)=C/C=C/C=C(C)/C=C/C=C(C)/C=C/C1=C(C)C[C@@H](O)CC1(C)C [Lutein] | 0.1 or less mg/100 g | 0.1% or less | –
7 | O=c1cc(-c2ccc(O)c(O)c2)oc2cc(O)cc(O)c12 [Luteolin] | 0.1 or less mg/100 g | 0.1% or less | –
8 | CC(C)=CCC/C(C)=C/C=C/C(C)=C/C=C/C(C)=C/C=C/C=C(C)/C=C/C=C(C)/C=C/C=C(\C)CCC=C(C)C [Lycopene] | 0.1 or less mg/100 g | 0.1% or less | –
9 | O=C1C[C@@H](c2ccc(O)cc2)Oc2cc(O)cc(O)c21 [Naringenin] | 1.1 mg/100 g | 0.3% | –
10 | C[C@@H]1O[C@@H](O[C@H]2[C@H](Oc3cc(O)c4c(c3)O[C@H](c3ccc(O)cc3)CC4=O)O[C@H](CO)[C@@H](O)[C@@H]2O)[C@H](O)[C@H](O)[C@H]1O [Naringin] | 55 mg/100 g | 17% | –
11 | O=c1c(O)c(-c2ccc(O)c(O)c2)oc2cc(O)cc(O)c12 [Quercetin] | 0.1 mg/100 g | 0.1% or less | –
12 | C[C@@H]1O[C@@H](OC[C@H]2O[C@@H](Oc3c(-c4ccc(O)c(O)c4)oc4cc(O)cc(O)c4c3=O)[C@H](O)[C@@H](O)[C@@H]2O)[C@H](O)[C@H](O)[C@H]1O [Rutin] | 1.0 mg/100 g | – | –
13 | CC1=CCCC(C)(C)C1/C=C/C(C)=C/C=C/C(C)=C/C=C/C=C(C)/C=C/C=C(C)/C=C/C1=C(C)CCCC1(C)C (stereo not drawn) [α-Carotene] | 0.1 or less mg/100 g | 0.1% or less | –
14 | CC1=C(/C=C/C(C)=C/C=C/C(C)=C/C=C/C=C(C)/C=C/C=C(C)/C=C/C2=C(C)CCCC2(C)C)C(C)(C)CCC1 [β-Carotene] | 0.1 or less mg/100 g | 0.1% or less | AUC [2]: 110 ng·h/mL; AUC [3]: 75 ng·h/mL; AUC [4]: 88.8 ng·h/mL; AUC [5]: 131 ng·h/mL
15 | CC1=C(/C=C/C(C)=C/C=C/C(C)=C/C=C/C=C(C)/C=C/C=C(C)/C=C/C2=C(C)C[C@@H](O)CC2(C)C)C(C)(C)CCC1 [β-Cryptoxanthin] | 0.1 or less mg/100 g | 0.1% or less | –
16 | α-Glucosyl rutin | 295 mg/100 g | 89% | –
